In patent US20150175974A1, “PRODUCING SOLIDS AND RELATED MOTHER LIQUORS” (Syngenta Participations AG, priority 2012, published 2015):
Values joined by “and” are separate entries in the source; they are usually repeats but may differ in a detail not shown here. Identical values can stand only once.

How the values were obtained:
[1] = Crystal shape of TMX crystallized with phage particles (optical and electron microscopy); format: physicochemical; settings: TMX 11 mg/ml, phage loading C/2 to C (C=37 mg/ml), FIG. 1 and FIG. 2
Protocol: An aqueous solution of TMX at a concentration of 11 mg/ml was prepared. The respective portion of TMX and water was added to an appropriately sized vessel and heated to 60° C. to dissolve the TMX. […] Phage loading was a C, C/2, C/10, C/25, and C/100. The solution was allowed to cool to room temperature and aged until crystallization was observed. Crystalline products were separated from the liquor by filtration and characterized by microscopy.

[2] = Particle size distribution of crystallized TMX (Malvern Mastersizer); format: physicochemical
Protocol: An aqueous solution of TMX at a concentration of 11 mg/ml was prepared. The respective portion of TMX and water was added to an appropriately sized vessel and heated to 60° C. to dissolve the TMX. Once dissolved, phage particles having binding domains selected to bind to TMX were added to the achieve target loading set forth in the Table 1 below. The solution was allowed to cool to room temperature and aged until crystallization was observed. Crystalline products were separated from the liquor by filtration and particle size distribution was measured using a Malvern Mastersizer.

[3] = average of the three measurements, TMX 11 mg/ml aqueous, cooled from 60° C.
[4] = single measurements, TMX 11 mg/ml aqueous, dissolved at 60° C., cooled to room temperature, crystals filtered, listed as TMX control

CN1COCN(Cc2cnc(Cl)s2)/C1=N\[N+](=O)[O-] [TMX, Thiamethoxam]
Crystal shape [1]: more bi-pyramidal shape | Size Dv (0.5) average [2, 3]: 23.1057 μm | Size Dv (0.95) average [2, 3]: 54.11 μm | Particle size of TMX crystallized in the presence of phage particles versus control ([2]; phage particles having binding domains selected to bind to TMX, C/25 and C/100): marked reduction | Size Dv (0.5) [2, 4]: 23.378 μm and 22.048 μm and 23.891 μm | Size Dv (0.95) [2, 4]: 52.18 μm and 54.16 μm and 55.74 μm
